Experimental data taken from patent publication US11572399B2, “Long-acting GIP peptide analogues” (University of Copenhagen, priority 2017, dated 2023).
Several values for one entry are separate records, joined by “and”; a condition that tells them apart may be missing. Equal values may be shown once. Peptide text beside a SMILES is read from it. * marks the point of attachment. C16 diacid = O=C(O)CCCCCCCCCCCCCCC(=O)*; Palmitoyl = CCCCCCCCCCCCCCCC(=O)*

How the values were obtained:
[1] = target: T1, human GIP receptor (Homo sapiens, UniProt P48546); experiment: cAMP accumulation assay, antagonism of a GIP-mediated cAMP response (50-80% of max); assay type: cell-based; conditions: for Fold change of IC50 versus GIP(5-30)NH2: fold change of IC50 from GIP(5-30)NH2
T1 construct: host or cells: COS-7, transient transfection (calcium phosphate), cDNA in pCMV-Script
T1 sequence (P48546 22-466): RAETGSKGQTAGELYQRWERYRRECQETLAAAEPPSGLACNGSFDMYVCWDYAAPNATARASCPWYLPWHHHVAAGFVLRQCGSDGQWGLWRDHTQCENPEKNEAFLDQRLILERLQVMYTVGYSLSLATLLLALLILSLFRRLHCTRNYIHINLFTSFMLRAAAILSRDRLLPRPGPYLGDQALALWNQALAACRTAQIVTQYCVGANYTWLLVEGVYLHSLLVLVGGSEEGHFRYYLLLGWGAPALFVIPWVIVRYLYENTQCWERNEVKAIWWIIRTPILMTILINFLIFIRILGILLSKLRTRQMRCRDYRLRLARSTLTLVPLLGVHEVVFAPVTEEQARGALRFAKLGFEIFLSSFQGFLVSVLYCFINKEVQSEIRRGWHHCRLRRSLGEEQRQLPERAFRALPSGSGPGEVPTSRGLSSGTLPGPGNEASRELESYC
Experimental: The day after, the cells were washed twice with Hepes buffered saline (HBS) buffer and incubated with HBS and 1 mM 3-isobutyl-1-methylxanthine (IBMX) for 30 min at 37° C. […] The HitHunter™ cAMP XS assay (DiscoveRx) was carried out according to the manufacturer's instructions.

[2] = target: T1, human GIP receptor; experiment: cAMP accumulation assay, agonism (ligand alone); assay type: cell-based; conditions: Table 1; for Emax: COS-7, intrinsic cAMP activity, COS-7 cells
[3] = target: T1, human GIP receptor; experiment: 125I-human GIP competition binding assay, in the presence and absence of 2% HSA; conditions: for Fold change HSA (2%)/Casein (0.1%): IC50 (plus HSA)/IC50 (minus HSA); for Binding (+/−HSA) Fold: fold change +HSA/−HSA;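 on all read-outs here: nonspecific binding taken as radioligand bound to untransfected cells, IC50 obtained from nonlinear regression fits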
Experimental: Transient transfection of the COS-7 cells for cAMP accumulation and competition binding was performed using the calcium phosphate precipitation method with the addition of chloroquine^46-47.
Transient transfected COS-7 cells expressing the human GIP receptor were seeded in clear 96-well plates the day after transfection using a number of cells/well that obtained 5-10% specific binding of the added radioactive ligand. The following day, cells were assayed by competition binding for 3 h at 4° C. using 15-40 pM 125 I-human GIP as well as increasing concentrations unlabeled ligand in 50 mM Hepes buffer (pH 7.2) in the presence and absence of 2% HSA. After incubation, the cells were washed twice in ice-cold binding buffer (+/−2% HSA) and lysed using 200 mM NaOH with 1% SDS for 30 min. Nonspecific binding was determined as the binding of radioactive ligand to untransfected cells.
IC50, EC50, and Ki values were determined by nonlinear regression. […] Ki values were based on the formula for one class of binding sites in homologous competition binding studies and the Cheng Prussoffs formula, respectively (DeBlasi et al., 1989). To determine the HSA binding potential, the fold change in affinity (as determined by IC50) was calculated as IC50 (plus HSA)/IC50 (minus HSA).

[4] = binding in 0.1% casein (absence of HSA), log value, read-out: logIC50 0.1% casein (converted)
[5] = heterologous competition binding, transiently transfected COS-7 cells expressing the human GIP receptor, read-out: Binding
[6] = transiently transfected COS-7 cells, Table 1 and text, read-out: cAMP antagonism nM (IC50, antagonistic potency)
[7] = antagonism of GIP-mediated cAMP response, COS-7 cells, read-out: cAMP accumulation IC50

SMILES | Fold change of IC50 versus GIP(5-30)NH2 [1] | Emax [2] [%] | Fold change HSA (2%)/Casein (0.1%) [3] | IC50 [3, 4] [nM] | IC50 ([3]; binding in presence of 2% HSA, read-out: logIC50 2% HSA (converted)) [nM] | Binding (+/−HSA) Fold [3] | IC50 [3, 5] [nM] | IC50 [1, 6] [nM] | IC50 ([1]; Table 3b, initial data, read-out: cAMP - antagonisme IC50) [nM] | cAMP - antagonisme fold (paired) ([1]; fold vs GIP(3-30)NH2, Table 3b) [fold] | IC50 ([1]; given as log IC50 (negative sign), transiently transfected COS-7 cells, Table 1, read-out: cAMP antagonism log (converted)) [nM] | IC50 ([3]; Table 3b, initial data, read-out: Binding IC50) [nM] | Binding fold (paired) ([3]; fold decrease in affinity compared to GIP(3-30)NH2, Table 3b) [fold] | IC50 [1, 7] [nM] | Fold change in affinity, IC50 (plus HSA)/IC50 (minus HSA) ([3]; presence vs absence of 2% HSA, proxy for albumin binding) [fold] | EC50 ([2]; given as log EC50 (negative sign), read-out: cAMP agonism EC50 (log) (converted))
CC[C@H](C)[C@H](NC(=O)[C@H](CO)NC(=O)[C@H](CCCCNC(=O)CCCCCCCCCCCCCCC(=O)O)NC(=O)[C@H](CC(=O)O)NC(=O)[C@H](CO)NC(=O)[C@@H](NC(=O)[C@H](Cc1ccccc1)NC(=O)[C@@H](N)[C@@H](C)O)[C@@H](C)CC)C(=O)N[C@@H](C)C(=O)N[C@@H](CCSC)C(=O)N[C@@H](CC(=O)O)C(=O)N[C@@H](CCCCN)C(=O)N[C@H](C(=O)N[C@@H](Cc1c[nH]cn1)C(=O)N[C@@H](CCC(N)=O)C(=O)N[C@@H](CCC(N)=O)C(=O)N[C@@H](CC(=O)O)C(=O)N[C@@H](Cc1ccccc1)C(=O)N[C@H](C(=O)N[C@@H](CC(N)=O)C(=O)N[C@@H](Cc1c[nH]c2ccccc12)C(=O)N[C@@H](CC(C)C)C(=O)N[C@@H](CC(C)C)C(=O)N[C@@H](C)C(=O)N[C@@H](CCC(N)=O)C(=O)N[C@@H](CCCCN)C(N)=O)C(C)C)[C@@H](C)CC [AT172, [hGIP(5-30)NH2[Y10K]-C16diacid/10]] (H-TFISDK(C16 diacid)SIAMDKIHQQDFVNWLLAQK-NH2; N-terminus assumed) | 14.1 | 0 | 3.8 | 251 | 955 | 2.8 | 252 | – | – | – | – | – | – | – | – | –
CC[C@H](C)[C@H](NC(=O)[C@H](CO)NC(=O)[C@H](Cc1ccc(O)cc1)NC(=O)[C@H](CC(=O)O)NC(=O)[C@H](CO)NC(=O)[C@@H](NC(=O)[C@H](Cc1ccccc1)NC(=O)[C@@H](N)[C@@H](C)O)[C@@H](C)CC)C(=O)N[C@@H](C)C(=O)N[C@@H](CCSC)C(=O)N[C@@H](CC(=O)O)C(=O)N[C@@H](CCCCN)C(=O)N[C@H](C(=O)N[C@@H](Cc1c[nH]cn1)C(=O)N[C@@H](CCC(N)=O)C(=O)N[C@@H](CCCCNC(=O)CCCCCCCCCCCCCCC(=O)O)C(=O)N[C@@H](CC(=O)O)C(=O)N[C@@H](Cc1ccccc1)C(=O)N[C@H](C(=O)N[C@@H](CC(N)=O)C(=O)N[C@@H](Cc1c[nH]c2ccccc12)C(=O)N[C@@H](CC(C)C)C(=O)N[C@@H](CC(C)C)C(=O)N[C@@H](C)C(=O)N[C@@H](CCC(N)=O)C(=O)N[C@@H](CCCCN)C(N)=O)C(C)C)[C@@H](C)CC [AT180, [hGIP(5-30)NH2[Q20K]-C16diacid/20]] (H-TFISDYSIAMDKIHQK(C16 diacid)DFVNWLLAQK-NH2; N-terminus assumed) | 1.7 | 0 | 3.7 | – | – | 6.4 | – | 37 | – | – | – | – | – | – | – | –
CCCCCCCCCCCCCCCC(=O)NCCCC[C@H](NC(=O)[C@H](CCC(=O)O)NC(=O)[C@H](CCSC)NC(=O)[C@H](C)NC(=O)[C@@H](NC(=O)[C@H](CO)NC(=O)[C@H](Cc1ccc(O)cc1)NC(=O)[C@H](CC(=O)O)NC(=O)[C@H](CO)NC(=O)[C@@H](NC(=O)[C@H](Cc1ccccc1)NC(=O)[C@@H](NC(=O)CNC(=O)[C@@H](N)CCC(=O)O)[C@@H](C)O)[C@@H](C)CC)[C@@H](C)CC)C(=O)N[C@H](C(=O)N[C@@H](C)C(=O)N[C@@H](CCC(N)=O)C(=O)N[C@@H](CCC(N)=O)C(=O)N[C@@H](CC(=O)O)C(=O)N[C@@H](Cc1ccccc1)C(=O)N[C@H](C(=O)N[C@@H](CC(N)=O)C(=O)N[C@@H](Cc1c[nH]c2ccccc12)C(=O)N[C@@H](CC(C)C)C(=O)N[C@@H](CC(C)C)C(=O)N[C@@H](C)C(=O)N[C@@H](CCC(N)=O)C(=O)N[C@@H](CCCCN)C(N)=O)C(C)C)[C@@H](C)CC [AT131, [hGIP(3-30)NH2[D15E; H18A]-C16/16]] (H-EGTFISDYSIAMEK(Palmitoyl)IAQQDFVNWLLAQK-NH2; N-terminus assumed) | – | 35 | – | – | – | – | 6510 | – | 65 | 1.1 | 39.8 | 6510 | 49 | – | – | –
CC[C@H](C)[C@H](NC(=O)[C@H](CO)NC(=O)[C@H](Cc1ccc(O)cc1)NC(=O)[C@H](CCCCNC(=O)CCCCCCCCCCCCCCC(=O)O)NC(=O)[C@H](CO)NC(=O)[C@@H](NC(=O)[C@H](Cc1ccccc1)NC(=O)[C@@H](N)[C@@H](C)O)[C@@H](C)CC)C(=O)N[C@@H](C)C(=O)N[C@@H](CCSC)C(=O)N[C@@H](CC(=O)O)C(=O)N[C@@H](CCCCN)C(=O)N[C@H](C(=O)N[C@@H](Cc1c[nH]cn1)C(=O)N[C@@H](CCC(N)=O)C(=O)N[C@@H](CCC(N)=O)C(=O)N[C@@H](CC(=O)O)C(=O)N[C@@H](Cc1ccccc1)C(=O)N[C@H](C(=O)N[C@@H](CC(N)=O)C(=O)N[C@@H](Cc1c[nH]c2ccccc12)C(=O)N[C@@H](CC(C)C)C(=O)N[C@@H](CC(C)C)C(=O)N[C@@H](C)C(=O)N[C@@H](CCC(N)=O)C(=O)N[C@@H](CCCCN)C(N)=O)C(C)C)[C@@H](C)CC [AT171, [hGIP(5-30)NH2[D9K]-C16diacid/9]] (H-TFISK(C16 diacid)YSIAMDKIHQQDFVNWLLAQK-NH2; N-terminus assumed) | 1.1 | 0 | 8.3 | 79.4 | – | 6.3 | – | 35 | – | – | – | – | – | 31.6 | 8.3 | –
CC[C@H](C)[C@H](NC(=O)[C@H](CO)NC(=O)[C@H](Cc1ccc(O)cc1)NC(=O)[C@H](CC(=O)O)NC(=O)[C@H](CO)NC(=O)[C@@H](NC(=O)[C@H](Cc1ccccc1)NC(=O)[C@@H](N)[C@@H](C)O)[C@@H](C)CC)C(=O)N[C@@H](C)C(=O)N[C@@H](CCSC)C(=O)N[C@@H](CC(=O)O)C(=O)N[C@@H](CCCCN)C(=O)N[C@H](C(=O)N[C@@H](Cc1c[nH]cn1)C(=O)N[C@@H](CCC(N)=O)C(=O)N[C@@H](CCC(N)=O)C(=O)N[C@@H](CC(=O)O)C(=O)N[C@@H](Cc1ccccc1)C(=O)N[C@H](C(=O)N[C@@H](CC(N)=O)C(=O)N[C@@H](Cc1c[nH]c2ccccc12)C(=O)N[C@@H](CC(C)C)C(=O)N[C@@H](CCCCNC(=O)CCCCCCCCCCCCCCC(=O)O)C(=O)N[C@@H](C)C(=O)N[C@@H](CCC(N)=O)C(=O)N[C@@H](CCCCN)C(N)=O)C(C)C)[C@@H](C)CC [AT187, [hGIP(5-30)NH2[L27K]-C16diacid/27]] (H-TFISDYSIAMDKIHQQDFVNWLK(C16 diacid)AQK-NH2; N-terminus assumed) | 67.6 | 25 | 4.7 | – | – | 18.2 | 26500 | 2380 | – | – | – | – | – | – | – | 1000 nM and 2510 nM
CC[C@H](C)[C@H](NC(=O)[C@H](CO)NC(=O)[C@H](Cc1ccc(O)cc1)NC(=O)[C@H](CC(=O)O)NC(=O)[C@H](CO)NC(=O)[C@@H](NC(=O)[C@H](Cc1ccccc1)NC(=O)[C@@H](N)[C@@H](C)O)[C@@H](C)CC)C(=O)N[C@@H](C)C(=O)N[C@@H](CCSC)C(=O)N[C@@H](CC(=O)O)C(=O)N[C@@H](CCCCN)C(=O)N[C@@H](CCCCNC(=O)CCCCCCCCCCCCCCC(=O)O)C(=O)N[C@@H](Cc1c[nH]cn1)C(=O)N[C@@H](CCC(N)=O)C(=O)N[C@@H](CCC(N)=O)C(=O)N[C@@H](CC(=O)O)C(=O)N[C@@H](Cc1ccccc1)C(=O)N[C@H](C(=O)N[C@@H](CC(N)=O)C(=O)N[C@@H](Cc1c[nH]c2ccccc12)C(=O)N[C@@H](CC(C)C)C(=O)N[C@@H](CC(C)C)C(=O)N[C@@H](C)C(=O)N[C@@H](CCC(N)=O)C(=O)N[C@@H](CCCCN)C(N)=O)C(C)C [AT178, [hGIP(5-30)NH2[I17K]-C16diacid/17]] (H-TFISDYSIAMDKK(C16 diacid)HQQDFVNWLLAQK-NH2; N-terminus assumed) | 1 | 0 | 3.0 | 63.1 | – | 4.5 | 66 | 33 | – | – | – | – | – | 27.5 | – | –
